Data taken from BindingDB's records for patent US9834551 (Arrien Pharmaceuticals, 2017).

Target: T1, Tyrosine-protein kinase JAK3 (Homo sapiens, UniProt P52333)
T1 sequence (P52333 whole entry): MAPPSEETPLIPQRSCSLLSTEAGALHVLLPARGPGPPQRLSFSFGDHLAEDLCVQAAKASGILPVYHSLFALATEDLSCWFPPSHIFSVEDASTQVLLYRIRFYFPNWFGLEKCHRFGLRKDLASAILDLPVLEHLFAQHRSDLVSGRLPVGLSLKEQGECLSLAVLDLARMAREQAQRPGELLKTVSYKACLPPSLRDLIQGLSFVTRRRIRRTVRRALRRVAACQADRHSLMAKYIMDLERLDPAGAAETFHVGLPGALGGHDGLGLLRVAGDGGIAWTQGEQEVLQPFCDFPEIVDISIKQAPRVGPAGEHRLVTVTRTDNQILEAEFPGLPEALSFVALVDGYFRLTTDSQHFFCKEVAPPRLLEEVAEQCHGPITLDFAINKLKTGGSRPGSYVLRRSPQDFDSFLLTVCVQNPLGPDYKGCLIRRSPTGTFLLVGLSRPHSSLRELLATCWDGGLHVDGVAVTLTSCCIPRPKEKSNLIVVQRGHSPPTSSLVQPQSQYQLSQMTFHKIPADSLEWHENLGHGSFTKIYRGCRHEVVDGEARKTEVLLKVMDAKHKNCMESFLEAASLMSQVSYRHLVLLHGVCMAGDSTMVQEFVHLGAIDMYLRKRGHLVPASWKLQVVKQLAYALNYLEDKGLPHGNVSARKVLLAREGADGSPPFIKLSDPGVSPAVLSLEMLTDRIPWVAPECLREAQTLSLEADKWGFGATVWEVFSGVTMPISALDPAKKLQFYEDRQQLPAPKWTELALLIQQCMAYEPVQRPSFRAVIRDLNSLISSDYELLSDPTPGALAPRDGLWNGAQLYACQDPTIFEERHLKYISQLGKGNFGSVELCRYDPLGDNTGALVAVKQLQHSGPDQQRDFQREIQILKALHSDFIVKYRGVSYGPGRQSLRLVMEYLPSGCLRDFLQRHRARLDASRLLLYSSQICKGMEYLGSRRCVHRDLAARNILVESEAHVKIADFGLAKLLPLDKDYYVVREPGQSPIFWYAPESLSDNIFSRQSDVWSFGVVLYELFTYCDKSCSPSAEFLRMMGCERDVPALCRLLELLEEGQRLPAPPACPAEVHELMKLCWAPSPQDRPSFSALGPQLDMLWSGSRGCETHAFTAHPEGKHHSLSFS
Experiment: In Vitro Inhibition Assay
Description: All additions were done on ice, followed by the addition of ATP mix. Wells were uniformly mixed using an Eppendorff plate shaker and incubated at 30° C. for 20 min, and stopped by the addition of 5 μL of 3% phosphoric acid. Volume was increased to 100 μL by adding 0.8% phosphoric acid which was then transferred to PC filter mats (Millipore), pre-equilibrated with 70% ethanol and water. Plates were washed thrice with 100 μL 0.8% phosphoric acid and dried for an hour at 60° C. 100 μL scintillation fluid was added into each well and reading taken in Perkin Elmer TOPCOUNT beta counter.

Row | IC50 [nM] | Compound
1 | < 100 | C=CC(=O)Nc1cccc(-c2cnc3[nH]cc(-c4cccc(C)c4F)c3c2)c1 [US9834551, Example 148]
2 | < 100 | C=CC(=O)Nc1cccc(-c2cnc3[nH]cc(-c4cccc(S(=O)(=O)N(CC)CC)c4)c3c2)c1 [US9834551, Example 28]
